Data as given in publication PMC5630632, “Assessing inhibitors of mutant isocitrate dehydrogenase using a suite of pre-clinical discovery assays” (Scientific Reports, 2017).

Target: P-glycoprotein (P-gp, MDR1, ABCB1) (Homo sapiens, UniProt P08183)
Experiment: Bidirectional MDCK-MDR1 permeability assay (Cyprotex)
Conditions: dog, MDCK-MDR1

P-glycoprotein (P-gp, MDR1, ABCB1), sequence (P08183 whole entry): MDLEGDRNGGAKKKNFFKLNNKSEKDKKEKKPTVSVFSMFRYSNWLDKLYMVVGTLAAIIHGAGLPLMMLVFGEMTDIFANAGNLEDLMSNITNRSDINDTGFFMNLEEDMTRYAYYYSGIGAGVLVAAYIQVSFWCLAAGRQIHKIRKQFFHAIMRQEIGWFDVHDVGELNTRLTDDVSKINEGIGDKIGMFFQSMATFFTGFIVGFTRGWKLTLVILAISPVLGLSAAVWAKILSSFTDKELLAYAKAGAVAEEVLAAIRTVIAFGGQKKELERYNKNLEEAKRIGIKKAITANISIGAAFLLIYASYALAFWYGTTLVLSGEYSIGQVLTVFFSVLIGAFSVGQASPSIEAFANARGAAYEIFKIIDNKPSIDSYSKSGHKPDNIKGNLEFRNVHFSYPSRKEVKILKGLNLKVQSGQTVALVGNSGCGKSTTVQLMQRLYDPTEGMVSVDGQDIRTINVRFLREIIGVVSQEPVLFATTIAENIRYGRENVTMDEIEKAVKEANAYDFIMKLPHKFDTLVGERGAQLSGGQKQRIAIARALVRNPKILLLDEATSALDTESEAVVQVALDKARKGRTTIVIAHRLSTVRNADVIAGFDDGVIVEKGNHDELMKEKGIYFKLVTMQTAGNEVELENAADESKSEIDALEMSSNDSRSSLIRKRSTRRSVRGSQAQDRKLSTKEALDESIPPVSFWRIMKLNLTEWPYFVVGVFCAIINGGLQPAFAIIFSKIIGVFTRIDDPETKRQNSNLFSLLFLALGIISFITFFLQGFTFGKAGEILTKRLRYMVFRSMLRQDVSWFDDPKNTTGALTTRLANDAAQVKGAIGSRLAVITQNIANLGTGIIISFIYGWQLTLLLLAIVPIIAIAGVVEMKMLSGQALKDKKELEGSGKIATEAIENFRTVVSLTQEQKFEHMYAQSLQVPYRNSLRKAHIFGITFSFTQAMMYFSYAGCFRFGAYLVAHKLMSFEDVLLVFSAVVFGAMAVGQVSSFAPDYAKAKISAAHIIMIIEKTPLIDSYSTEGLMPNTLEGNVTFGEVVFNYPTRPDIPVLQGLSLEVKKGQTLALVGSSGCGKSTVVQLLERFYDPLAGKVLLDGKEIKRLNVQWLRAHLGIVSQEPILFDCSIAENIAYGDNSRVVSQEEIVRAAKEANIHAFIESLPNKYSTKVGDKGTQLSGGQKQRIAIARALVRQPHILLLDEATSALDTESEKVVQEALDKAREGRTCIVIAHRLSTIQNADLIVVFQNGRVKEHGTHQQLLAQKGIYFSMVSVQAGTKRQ

SMILES: CN(C)C(=O)C(CCN1CCC(O)(c2ccc(Cl)cc2)CC1)(c1ccccc1)c1ccccc1 [loperamide]
- efflux ratio at 2 h, 10 µM: ~350
